Laboratory results reported in patent US20100267712A1, “ISOINDOLINE COMPOUNDS FOR THE TREATMENT OF SPINAL MUSCULAR ATROPHY AND OTHER USES” (The United States of America, as represented by the …, priority 2007, published 2010).

System: SMN2-linked luciferase-reporter gene construct
Experiment: SMN Splice Reporter Assay (SMN2-linked luciferase reporter)
Format: cell-based
Conditions: for Fold Increase: fold-increase of luciferase over baseline reading of transformed cells without any test compound; for EC50: cervical carcinoma cell lines, SMN2 splice luciferase reporter
Text: As previously discussed, SMN1 is the gene deleted in SMA patients; the SMN2 gene remains intact in both SMA and normal patients. Therefore, SMN2 provides a potential means of increasing SMN production in SMA patients and is, thus, a target for developing SMA treatments. SMN2 is identical to SMN1 with the exception of a single base pair change that results in reduced expression of the gene. The reduction is based on the creation of an alternatively spliced RNA that produces an unstable protein carrying a deletion of exon 7. Both full length SMN and exon 7 deleted SMN are produced by the SMN2 gene via alternative RNA splicing, but the major product is the unstable deleted form.
Cervical carcinoma cell lines were transformed with a SMN2-linked luciferase-reporter gene construct. The reporter is designed to detect shifts in the alternative splicing of SMN2 sequences. In particular, the reporter is constructed as a fusion of the alternatively spliced sequences of the SMN2 gene and the luciferase gene. Luciferase sequences are in the correct translational reading frame only when the SMN2 sequences are spliced according to the normal SMN1 mechanism (e.g., splicing to include exon 7), which allows for translation of the stable SMN protein. Compounds were tested in the assay by administering the compound to the cell line and detecting an increase in the luciferase activity. The assay is described in greater detail in Zhang et al., Gene Ther., 8: 1532-8 (2001). Compounds were administered as described in Lunn et al, Chem. & Biol, 11: 1489-1493 (2004).
The results are reported as a fold-increase over a baseline reading of transformed cells without any test compound. The EC50 value also is reported in Table 1 for some exemplary compounds of the invention.

Structure (SMILES)	Fold Increase	EC50 [nM]
CC(=O)Nc1ccc2c(c1)C(=O)N(c1ccc3c(c1)cc(C)n3C(C)C)C2 [Example 125822]	1.329	
CN(C)c1ccc2c(c1)C(=O)N(c1ccc3c(c1)CCN3C)C2 [Example 119660]	1.074	
Cn1ccc2ccc(N3Cc4ccc(NS(C)(=O)=O)cc4C3=O)cc21 [Example 124977]	1.061	
Cc1ccc2c(c1)C(=O)N(c1ccc3c(ccn3C)c1)C2 [Example 121507]	1.411	34
COc1ccc2c(c1)C(=O)N(c1ccc3nccc(Cl)c3c1)C2 [Example 123013]	1.413	902
COc1ccc2c(c1)C(=O)N(c1ccc3c(c1)OCO3)C2 [Example 116360]	1.282	
CCCOc1ccc2c(c1)C(=O)N(c1ccc3cc(C)n(C)c3c1)C2 [Example 124982]	1.221	
Cn1ccc2ccc(N3Cc4ccccc4C3=O)cc21 [Example 120435]	1.585	640
COc1ccc2c(c1)C(=O)N(c1ccc3c(c1)CCN3C)C2 [Example 122314]	1.026	
Cn1ccc2cc(N3Cc4ccc(NC=O)cc4C3=O)ccc21 [Example 125096]	1.371	44
Cc1cc2ccc(N3Cc4ccc(OC(C)C)cc4C3=O)cc2n1C [Example 125098]	1.251	134
COc1cc2c(cc1F)CN(c1ccc3c(ccn3C)c1)C2=O [Example 121926]	1.533	199
CC(C)C(=O)Nc1ccc2c(c1)C(=O)N(c1ccc3ccn(C)c3c1)C2 [Example 124776]	2.069	
CC(C)(C)OC(=O)Cc1ccc(N2Cc3ccccc3C2=O)nc1 [Example 112719]	1.324	6580
CC(C)Oc1ccc2c(c1)C(=O)N(c1ccc3sccc3c1)C2 [Example 122553]	1.082	
CC(=O)Nc1ccc2c(c1)C(=O)N(c1ccc3c(ccn3C(C)C)c1)C2 [Example 126111]	1.34	63
Cn1ccc2ccc(N3Cc4ccc(NC=O)cc4C3=O)cc21 [Example 124981]	1.638	
COc1ccc2c(c1)C(=O)N(c1ccc3ncncc3c1)C2 [Example 121791]	1.448	1060
Cn1ccc2cc(N3Cc4cccc(Br)c4C3=O)ccc21 [Example 120280]	1.527	455
CN(C)c1ccc2c(c1)C(=O)N(c1ccc3cc[nH]c3c1)C2 [Example 125600]	1.405	4
COc1ccc2c(c1)C(=O)N(c1ccc3c(c1)cc(-c1ccccc1)n3C)C2 [Example 124979]	1.378	
CCCn1ccc2cc(N3Cc4ccc(OC)cc4C3=O)ccc21 [Example 119517]	1.59	439
COc1ccc2c(c1)C(=O)N(c1ccc3c(ccn3C(C)=O)c1)C2 [Example 121076]	1.295	49
Cn1ccc2cc(N3Cc4c(Br)cccc4C3=O)ccc21 [Example 120289]	1.39	1030
COc1ccc2c(c1)C(=O)N(c1ccc3ccc(N(C)C)nc3c1)C2 [Example 123937]	1.202	
Cn1ccc2cc(N3Cc4cccc([N+](=O)[O-])c4C3=O)ccc21 [Example 120428]	1.262	338
COc1cccc2c1C(=O)N(c1ccc3c(ccn3C)c1)C2 [Example 120125]	1.332	540
CCCCc1ccc2c(c1)C(=O)N(c1ccc3c(c1)cc(C)n3C)C2 [Example 123331]	1.31	660

Structure (SMILES)	Fold Increase	EC50 [nM]
Cn1ccc2cc(N3Cc4cccc(N)c4C3=O)ccc21 [Example 120427]	1.606	294
O=C1c2cc(OC(F)F)ccc2CN1c1ccc2sccc2c1 [Example 121644]	1.801	115
Cc1cc2cc(N3Cc4ccc(S(C)(=O)=O)cc4C3=O)ccc2n1C [Example 124166]	1.227	
COc1ccc2c(c1)CN(c1ccc3c(ccn3C)c1)C2 [Example 122183]	1.518	593
CC(C)Oc1ccc2c(c1)C(=O)N(c1ccc3c(ccn3C)c1)C2 [Example 121923]	1.194	
Cn1ccc2cc(N3Cc4cc(Br)ccc4C3=O)ccc21 [Example 120592]	1.51	112
Cn1ccc2ccc(N3Cc4ccc(-c5cccnc5)cc4C3=O)cc21 [Example 122318]	1.94	459
CCCc1ccc2c(c1)C(=O)N(c1ccc3c(c1)cc(C)n3C)C2 [Example 123014]	1.407	323
Cn1ccc2cc(N3Cc4ccc(-c5cccnc5)cc4C3=O)ccc21 [Example 122042]	1.422	728
CCCCOc1ccc2c(c1)C(=O)N(c1ccc3c(ccn3C)c1)C2 [Example 121922]	1.301	225
COc1ccc2c(c1)C(=O)N(c1ccc3sccc3c1)C2 [Example 119519]	1.666	31
COc1ccc2c(c1)C(=O)N(c1ccc3c(c1)ncn3C)C2 [Example 120291]	1.362	111
CCCn1ccc2ccc(N3Cc4ccc(OC)cc4C3=O)cc21 [Example 119868]	1.582	2280
COc1ccc2c(c1)C(=O)N(c1ccc3ncoc3c1)C2 [Example 121262]	1.317	336
Cc1ccc(N2Cc3cc4c(cc3C2=O)OCCO4)nc1 [Example 118418]	1.496	63
COc1ccc2c(c1)CN(c1ccc3ncccc3c1)C2=O [Example 120951]	1.769	135
Cn1ccc2ccc(N3Cc4ccc(NC(=O)c5ccccc5)cc4C3=O)cc21 [Example 124775]	1.216	
COc1ccc2c(c1)C(=O)N(c1cnc3c(ccn3C)c1)C2 [Example 121079]	1.385	42
CCCc1ccc2c(c1)C(=O)N(c1ccc3sccc3c1)C2 [Example 122819]	1.547	35
O=C1c2cc(N3CCCC3)ccc2CN1c1ccc2ncccc2c1 [Example 124770]	1.948	24
COCn1ccc2ccc(N3Cc4ccc(OC)cc4C3=O)cc21 [Example 120431]	1.311	120
COc1cccc2c1CN(c1ccc3ncccc3c1)C2=O [Example 120956]	1.329	1250
Cc1ccc2c(c1)CN(c1ccc3c(ccn3C)c1)C2=O [Example 120780]	1.344	
O=C1c2ccccc2CN1c1ccc(Br)cn1 [Example 112648]	1.264	456
COc1ccc2c(c1)C(=O)N(c1ccc3nccc(O)c3c1)C2 [Example 121645]	1.093	
COc1cccc2c1CN(c1ccc3c(ccn3C)c1)C2=O [Example 119865]	1.444	842
O=C1c2ccccc2CN1c1ccc2c(c1)CCC2 [Example 116070]	1.445	67
